According to patent EP0049049A1, “5-Amino-tetrazole derivatives, processes for their preparation and pharmaceutical compositions containing them” (GLAXO GROUP LIMITED, priority 1980, dated 1982):

The compounds below were run on perfused rat stomach (assay: perfused rat stomach test (inhibition of gastric acid secretion stimulated via histamine receptors)). Settings: not given.
Assay type: in vivo
Text: Certain novel heterocyclic derivatives have now been found which have potent activity as H2-antagonists. […] Certain compounds according to the invention have the advantage of an extended duration of action .

**Q.** With `CN(C)Cc1cc(CSCCNc2nnnn2C)cs1` [5(b), N-[2-[[5-(dimethylamino)methyl-3-thienylmethyl]thio]ethyl]-1-methyl-lH-tetrazol-5-amine] as the compound, how does the ED50 read?
**A.** Its ED50 is “less than 0.22 mg/kg”.

Same assay, conditions: read-out: ED50

**Q.** How did the ED50 turn out when `CN(C)Cc1cccc(OCCCNc2nnnn2C)c1` [l(d), l-methyl-N-[[3-[3-(dimethylamino)methyl]phenoxy]propyl]-lH-tetrazol-5-amine] was run?
**A.** The ED50 was under 0.22 mg/kg.

**Q.** Which ED50 does the source give for `Cn1nnnc1NCCCOc1cccc(CN2CCCCC2)c1` [l(a), 1-Methyl-N-[3-[3-(1-piperidinylmethyl)phenoxy]propyl]-1H-tetrazol-5-amine] here?
**A.** The ED50 was under 0.22 mg/kg.

**Q.** `OCCn1nnnc1NCCCOc1cccc(CN2CCCCC2)c1` [Example 4, 5-[[3-[3-(1-piperidinylmethyl)phenoxy]propyl]amino]-1H-tetrazol-1-(2-ethanol) hydrate (4 : 1)] was tested. Which ED50 did it give?
**A.** Its ED50 is under 0.22 mg/kg.

**Q.** Which ED50 does the source give for `CC(C)n1nnnc1NCCCCOc1cccc(CN2CCCCC2)c1` [1(c), l-(l-methylethyl)-N-[4-[3-(1-piperidinylmethyl)phenoxy]butyl]-1H-tetrazol-5-amine] here?
**A.** Its ED50 is under 0.22 mg/kg.

**Q.** How did the ED50 turn out when `CCCCCCNCc1cccc(OCCCNc2nnnn2C)c1` [7(b), N-[3-[3-[(hexylamino)methyl]phenoxy]propyl]-1-methyl-1H-tetrazol-5-amine hydrate (4:1)] was run?
**A.** The ED50 was under 0.22 mg/kg.
